In publication PMC5402281, “Functional, thermodynamics, structural and biological studies of in silico-identified inhibitors of Mycobacterium tuberculosis enoyl-ACP(CoA) reductase enzyme” (Scientific Reports, 2017):
Converted amounts (≈) assume the structure as drawn.

Test system: M. tuberculosis PE-003 multidrug-resistant clinical isolate
Test: microbe, parasite or virus in culture
Format: cell-based
Conditions: Mycobacterium tuberculosis, read-out: MIC PE-003 in μM

| Compound | MIC |
| --- | --- |
| Cc1ccccc1OCc1nc(-c2ccc(NC(=O)c3cccs3)cc2)no1 [Labio_16] | 1.5 µM (≈ 0.587 µg/mL) |
| CCOC(=O)c1ccc2nc(C)cc(Nc3ccc(N4CCCCC4)cc3)c2c1 [Labio_17] | 2.5 µM (≈ 0.974 µg/mL) |
